From US7250413B2, “C-25 carbamate rifamycin derivatives with activity against drug-resistant microbes” (Cumbre Pharmaceuticals Inc., priority 2004, dated 2007)
Converted amounts (≈) assume the structure as drawn. Read-outs that look alike come from different tables or passages of the source.

How the values were obtained:
Test in all cases: MIC, microbroth dilution
Type in all cases: cell-based
[1] = tested on: Enterococcus faecalis ATCC29212
Procedure: (§1) Representative compounds were assayed for antimicrobial activity as follows: Minimum Inhibitory Concentrations (“MICs”) were determined by the microbroth dilution method as per NCCLS guidelines (National Committee for Clinical Laboratory Standards, 2000), except that all growth incubations were conducted at 37° C. Bacterial cultures were tested in the following bacteriological media: S. aureus, S. epidermidis, and E. coli in Cation-Adjusted Mueller-Hinton Broth, S. pneumoniae in THY Broth supplemented with 1 mg/mL catalase under 5% CO2 atmosphere, S. pyogenes in THY Broth, E. faecalis in BHI Broth, H. influenzae in BHI Broth supplemented with 0.75 μL of 1 mg/mL NAD and 150 μL of 1 mg/ml hematin per 5 mL, and M smegmatis in Middlebrook Broth plus ADC Enrichment.

[2] = tested on: Mycobacterium smegmatis ATCC700084; conditions: Mycolicibacterium smegmatis, ATCC700084; rifS; Middlebrook Broth plus ADC Enrichment, 37° C.; read-out: MIC
Procedure: as §1

[3] = tested on: Staphylococcus aureus ATCC29213
Procedure: as §1

[4] = rifS, BHI Broth, 37° C., read-out: MIC
[5] = rifS, Cation-Adjusted Mueller-Hinton Broth, 37° C., read-out: MIC

Row | SMILES | MIC [1, 4] | MIC [2] | MIC [3, 5] | MIC [1] | MIC [3]
1 | CO[C@H]1/C=C/O[C@@]2(C)Oc3c(C)c(O)c4c(c3C2=O)C(=O)C(N2CCOCC2)=C(NC(=O)/C(C)=C\C=C\[C@H](C)[C@@H]2OC(C)(C)O[C@@H]([C@@H](C)[C@H](OC(=O)n3ccnc3)[C@@H]1C)[C@@H]2C)C4=O [Example 4] | 0.25 to 62 µg/mL (≈ 0.286 to 71 µM) | 0.063 to 31 µg/mL | 0.002 to 1.95 µg/mL (≈ 0.00229 to 2.23 µM) | – | –
2 | CO[C@H]1/C=C/O[C@@]2(C)Oc3c(C)c(O)c4c(c3C2=O)C(=O)C(N2CCOCC2)=C(NC(=O)/C(C)=C\C=C\[C@H](C)[C@@H]2OC(C)(C)O[C@@H]([C@@H](C)[C@H](OC(=O)n3cc[n+](Cc5ccccc5)c3)[C@@H]1C)[C@@H]2C)C4=O [Example 5, 1-Benzyl-3-(25-O-desacetyl-(carbonyl-cyclic-21,23-(1-methylethylideneacetal) 3-morpholinorifamycin S))-3H-imidazol-1-ium] | 0.25 to 62 µg/mL | 0.063 to 31 µg/mL | 0.002 to 1.95 µg/mL | – | –
3 | CO[C@H]1/C=C/O[C@@]2(C)Oc3c(C)c(O)c4c(c3C2=O)C(=O)C(N2CCOCC2)=C(NC(=O)/C(C)=C\C=C\[C@H](C)[C@H](O)[C@@H](C)[C@@H](O)[C@@H](C)[C@H](OC(=O)N2CCN(C)CC2)[C@@H]1C)C4=O [Example 6, 25-O-Desacetyl-(1-carbonyl-4-methyl-piperazine) 3-morpholino rifamycin S] | 0.25 to 62 µg/mL (≈ 0.289 to 71.7 µM) | 0.063 to 31 µg/mL | 0.002 to 1.95 µg/mL (≈ 0.00231 to 2.25 µM) | – | –
4 | CO[C@H]1/C=C/O[C@@]2(C)Oc3c(C)c(O)c4c(c3C2=O)C(=O)C(N2CCOCC2)=C(NC(=O)/C(C)=C\C=C\[C@H](C)[C@H](O)[C@@H](C)[C@@H](O)[C@@H](C)[C@H](OC(=O)NCC(C)C)[C@@H]1C)C4=O [Example 7, 25-O-Desacetyl-(1-carbonyl-isobutylamino) 3-morpholino rifamycin S] | 0.25 to 62 µg/mL (≈ 0.298 to 74 µM) | 0.063 to 31 µg/mL | 0.002 to 1.95 µg/mL (≈ 0.00239 to 2.33 µM) | – | –
5 | C=CCNC(=O)O[C@H]1[C@H](C)[C@H](O)[C@H](C)[C@@H](O)[C@@H](C)/C=C/C=C(/C)C(=O)NC2=C(N3CCOCC3)C(=O)c3c(c(O)c(C)c4c3C(=O)[C@@](C)(O/C=C/[C@H](OC)[C@H]1C)O4)C2=O [Example 8, 25-O-Desacetyl-(carbonyl-allylamino) 3-morpholino rifamycin S] | 0.25 to 62 µg/mL (≈ 0.304 to 75.4 µM) | 0.063 to 31 µg/mL | 0.002 to 1.95 µg/mL (≈ 0.00243 to 2.37 µM) | – | –
6 | CO[C@H]1/C=C/O[C@@]2(C)Oc3c(C)c(O)c4c(c3C2=O)C(=O)C(N2CCOCC2)=C(NC(=O)/C(C)=C\C=C\[C@H](C)[C@H](O)[C@@H](C)[C@@H](O)[C@@H](C)[C@H](OC(=O)NCCN2CCN(C)CC2)[C@@H]1C)C4=O [Example 9, 25-O-Desacetyl-(1-carbonyl-2-(4-methyl-piperazin-1-yl)-ethylamine) 3-morpholino rifamycin S] | 0.25 to 62 µg/mL (≈ 0.275 to 68.3 µM) | 0.063 to 31 µg/mL | 0.002 to 1.95 µg/mL (≈ 0.0022 to 2.15 µM) | – | –
7 | CCN(CC)C(=O)O[C@H]1[C@H](C)[C@H](O)[C@H](C)[C@@H](O)[C@@H](C)/C=C/C=C(/C)C(=O)NC2=C(N3CCOCC3)C(=O)c3c(c(O)c(C)c4c3C(=O)[C@@](C)(O/C=C/[C@H](OC)[C@H]1C)O4)C2=O [Example 10, 25-O-Desacetyl-(1-carbonyl-2-diethylamine) 3-morpholino rifamycin S] | 0.25 to 62 µg/mL (≈ 0.298 to 74 µM) | 0.063 to 31 µg/mL | 0.002 to 1.95 µg/mL (≈ 0.00239 to 2.33 µM) | – | –
8 | CO[C@H]1/C=C/O[C@@]2(C)Oc3c(C)c(O)c4c(c3C2=O)C(=O)C(N2CCOCC2)=C(NC(=O)/C(C)=C\C=C\[C@H](C)[C@H](O)[C@@H](C)[C@@H](O)[C@@H](C)[C@H](OC(=O)NCCCn2ccnc2)[C@@H]1C)C4=O [Example 11, 25-O-Desacetyl-(1-carbonyl-3-imidazol-1-yl-propylamine) 3-morpholino rifamycin S] | 0.25 to 62 µg/mL (≈ 0.281 to 69.7 µM) | 0.063 to 31 µg/mL | 0.002 to 1.95 µg/mL (≈ 0.00225 to 2.19 µM) | – | –
9 | CO[C@H]1/C=C/O[C@@]2(C)Oc3c(C)c(O)c4c(c3C2=O)C(=O)C(N2CCOCC2)=C(NC(=O)/C(C)=C\C=C\[C@H](C)[C@H](O)[C@@H](C)[C@@H](O)[C@@H](C)[C@H](OC(=O)N2CCN(c3ccc(F)cc3)CC2)[C@@H]1C)C4=O [Example 12, 25-O-Desacetyl-(1-carbonyl-1-(4-fluorophenyl)-piperazine) 3-morpholino rifamycin S] | 0.25 to 62 µg/mL (≈ 0.265 to 65.6 µM) | 0.063 to 31 µg/mL | 0.002 to 1.95 µg/mL (≈ 0.00212 to 2.06 µM) | – | –
10 | CO[C@H]1/C=C/O[C@@]2(C)Oc3c(C)c(O)c4c(c3C2=O)C(=O)C(N2CCOCC2)=C(NC(=O)/C(C)=C\C=C\[C@H](C)[C@H](O)[C@@H](C)[C@@H](O)[C@@H](C)[C@H](OC(=O)NCc2cccc(C(F)(F)F)c2)[C@@H]1C)C4=O [Example 13, 25-O-Desacetyl-(carbonyl-1-(3-trifluoromethylbenzylamino)) 3-morpholino rifamycin S] | 0.25 to 62 µg/mL (≈ 0.266 to 66 µM) | 0.063 to 31 µg/mL | 0.002 to 1.95 µg/mL (≈ 0.00213 to 2.07 µM) | – | –
11 | CO[C@H]1/C=C/O[C@@]2(C)Oc3c(C)c(O)c4c(c3C2=O)C(=O)C(N2CCOCC2)=C(NC(=O)/C(C)=C\C=C\[C@H](C)[C@H](O)[C@@H](C)[C@@H](O)[C@@H](C)[C@H](OC(=O)N2CCCC2)[C@@H]1C)C4=O [Example 14, 25-O-Desacetyl-(carbonyl-1-pyrrolidino) 3-morpholino rifamycin S] | 0.25 to 62 µg/mL (≈ 0.299 to 74.2 µM) | 0.063 to 31 µg/mL | 0.002 to 1.95 µg/mL (≈ 0.00239 to 2.33 µM) | – | –
12 | CO[C@H]1/C=C/O[C@@]2(C)Oc3c(C)c(O)c4c(c3C2=O)C(=O)C(N2CCOCC2)=C(NC(=O)/C(C)=C\C=C\[C@H](C)[C@H](O)[C@@H](C)[C@@H](O)[C@@H](C)[C@H](OC(=O)NCc2ccccc2)[C@@H]1C)C4=O [Example 15, 25-O-Desacetyl (carbonyl-benzyl) 3-morpholino rifamycin S] | 0.25 to 62 µg/mL (≈ 0.287 to 71.1 µM) | 0.063 to 31 µg/mL | 0.002 to 1.95 µg/mL (≈ 0.00229 to 2.24 µM) | – | –
13 | CO[C@H]1/C=C/O[C@@]2(C)Oc3c(C)c(O)c4c(c3C2=O)C(=O)C(N2CCOCC2)=C(NC(=O)/C(C)=C\C=C\[C@H](C)[C@H](O)[C@@H](C)[C@@H](O)[C@@H](C)[C@H](OC(=O)N2CCN(c3cc5c(cc3F)c(=O)c(C(=O)O)cn5C3CC3)CC2)[C@@H]1C)C4=O [Example 16, 25-O-Desacetyl-(4-carbonyl-1-cyclopropyl-6-fluoro-4-oxo-7-piperazin-1-yl-1,4-dihydro-quinoline-3-carboxylic acid) 3-morpholino rifamycin S] | 0.25 to 62 µg/mL (≈ 0.228 to 56.6 µM) | 0.063 to 31 µg/mL | 0.002 to 1.95 µg/mL (≈ 0.00182 to 1.78 µM) | – | –
14 | CO[C@H]1/C=C/O[C@@]2(C)Oc3c(C)c(O)c4c(c3C2=O)C(=O)C(N2CCOCC2)=C(NC(=O)/C(C)=C\C=C\[C@H](C)[C@H](O)[C@@H](C)[C@@H](O)[C@@H](C)[C@H](OC(=O)N2CCN(c3c(F)cc5c(=O)c(C(=O)O)cn(C6CC6)c5c3Cl)CC2)[C@@H]1C)C4=O [Example 17, 25-O-Desacetyl-(8-chloro-1-cyclopropyl-7-[4-(1-carbonyl)-piperazin-1-yl]-6-fluoro-4-oxo-1,4-dihydro-quinoline-3-carboxylic acid) 3-morpholino rifamycin S] | 0.25 to 62 µg/mL (≈ 0.221 to 54.8 µM) | 0.063 to 31 µg/mL | 0.002 to 1.95 µg/mL (≈ 0.00177 to 1.72 µM) | – | –
15 | CO[C@H]1/C=C/O[C@@]2(C)Oc3c(C)c(O)c4c(c3C2=O)C(=O)C(N2CCOCC2)=C(NC(=O)/C(C)=C\C=C\[C@H](C)[C@H](O)[C@@H](C)[C@@H](O)[C@@H](C)[C@H](OC(=O)NCCc2ccccn2)[C@@H]1C)C4=O [Example 18, 25-O-Desacetyl-(1-carbonyl-(2-pyridin-2-yl-ethylamine)) 3-morpholino rifamycin S] | 0.25 to 62 µg/mL (≈ 0.282 to 69.9 µM) | 0.063 to 31 µg/mL | 0.002 to 1.95 µg/mL (≈ 0.00225 to 2.2 µM) | – | –
16 | CO[C@H]1/C=C/O[C@@]2(C)Oc3c(C)c(O)c4c(c3C2=O)C(=O)C(N2CCOCC2)=C(NC(=O)/C(C)=C\C=C\[C@H](C)[C@H](O)[C@@H](C)[C@@H](O)[C@@H](C)[C@H](OC(=O)NCCc2cccs2)[C@@H]1C)C4=O [Example 19, 25-O-Desacetyl-(1-carbonyl-2-thiophen-2-yl-ethylamine) 3-morpholino rifamycin S] | 0.25 to 62 µg/mL (≈ 0.28 to 69.5 µM) | 0.063 to 31 µg/mL | 0.002 to 1.95 µg/mL (≈ 0.00224 to 2.19 µM) | – | –
17 | CO[C@H]1/C=C/O[C@@]2(C)Oc3c(C)c(O)c4c(c3C2=O)C(=O)C(N2CCOCC2)=C(NC(=O)/C(C)=C\C=C\[C@H](C)[C@H](O)[C@@H](C)[C@@H](O)[C@@H](C)[C@H](OC(=O)NCCO)[C@@H]1C)C4=O [Example 20, 25-O-Desacetyl-(1-carbonyl-2-aminoethanol) 3-morpholino rifamycin S] | 0.25 to 62 µg/mL (≈ 0.303 to 75.1 µM) | 0.063 to 31 µg/mL | 0.002 to 1.95 µg/mL (≈ 0.00242 to 2.36 µM) | – | –
18 | CO[C@H]1/C=C/O[C@@]2(C)Oc3c(C)c(O)c4c(c3C2=O)C(=O)C(N2CCOCC2)=C(NC(=O)/C(C)=C\C=C\[C@H](C)[C@H](O)[C@@H](C)[C@@H](O)[C@@H](C)[C@H](OC(=O)NCc2cccc3ccccc23)[C@@H]1C)C4=O [Example 23, 25-O-Desacetyl-(carbonyl-naphthalen-1-ylmethyl-amino) 3-morpholino rifamycin S] | – | – | – | 0.25 to 62 µg/mL (≈ 0.271 to 67.2 µM) | 0.002 to 1.95 µg/mL (≈ 0.00217 to 2.11 µM)
19 | COc1cncc(NC(=O)c2ccc(N3CCNCC3)c(C(F)(F)F)c2)c1 [Example 52, N-(5-Methoxy-pyridin-3-yl)-4-piperazin-1-yl-3-trifluoromethyl-benzamide] | – | – | – | 0.25 to 62 µg/mL (≈ 0.657 to 163 µM) | 0.002 to 1.95 µg/mL (≈ 0.00526 to 5.13 µM)
20 | CO[C@H]1/C=C/O[C@@]2(C)Oc3c(C)c(O)c4c(c3C2=O)C(=O)C(N2CCOCC2)=C(NC(=O)/C(C)=C\C=C\[C@H](C)[C@@H]2OC(C)(C)O[C@@H]([C@@H](C)[C@H](OC(=O)N3CCC(=O)CC3)[C@@H]1C)[C@@H]2C)C4=O [Example 54, 25-O-Desacetyl-(carbonyl-N-(4-piperidone)) cyclic-21,23-(1-methylethylideneacetal) 3-morpholino rifamycin S] | – | – | – | 0.25 to 62 µg/mL (≈ 0.277 to 68.6 µM) | 0.002 to 1.95 µg/mL (≈ 0.00221 to 2.16 µM)
21 | CO[C@H]1/C=C/O[C@@]2(C)Oc3c(C)c(O)c4c(c3C2=O)C(=O)C(N2CCOCC2)=C(NC(=O)/C(C)=C\C=C\[C@H](C)[C@@H]2OC(C)(C)O[C@@H]([C@@H](C)[C@H](OC(=O)N3CCC(=O)C3)[C@@H]1C)[C@@H]2C)C4=O [Example 61] | – | – | – | 0.25 to 62 µg/mL (≈ 0.281 to 69.7 µM) | 0.002 to 1.95 µg/mL (≈ 0.00225 to 2.19 µM)
